Assays:
Human GPR55 = molecular target: T1, Human GPR55 (Homo sapiens, UniProt Q9Y2T6); assay: Yeast FUS1-lacZ/FUS1-HIS3 reporter gene induction assay, yeast expressing p426GPD-GPR55 with Gpa1/Gα chimeras; type: cell-based
T1 construct: expressed in transfected cells; host or cells: Saccharomyces cerevisiae strains MMY14-MMY24 (STE2 and GPA1 deleted, Gpa1/Gα chimeras integrated)
Excerpt: These strains contain a series of genetic modifications to enable coupling of heterologously expressed receptors to the expression of two reporter genes, via the endogenous yeast pheromone response signal transduction pathway. Importantly, the gene encoding the endogenous yeast pheromone receptor, STE2, has been deleted from these strains such that cells containing p426GPD-GPR55 will express GPR55 protein in place of Ste2 receptor protein. Furthermore, the gene encoding the G-protein α-subunit involved in the pheromone response, GPA1, has been deleted from these strains. To enable receptor coupling in strains MMY14-24, plasmid constructs encoding modified versions of GPA1 have been stably integrated into the yeast chromosome and are expressed in place of endogenous yeast GPA1. […] Generally, the modifications made to Gpa1 facilitate coupling of heterologously expressed receptors to the yeast pheromone response pathway.
In vivo assays of reporter gene induction were carried out by suspending yeast cells transformed as described above to a density of 0.02 OD600/ml in 200 μl SC-glucose (2%) medium lacking tryptophan, uracil and histidine. This medium was supplemented with 10 mM 3-aminotriazole and the β-galactosidase (lacZ) substrate chlorophenolred-β-D-galactopyranoside (CPRG; Boehringer Mannheim) to a concentration of 0.1 mg/ml. […] To visualise the yellow to red colour change reaction occurring on degradation of CPRG due to β-galactosidase, the medium was buffered to pH 7 with 0.1 M sodium phosphate. The assay was conducted in flat-bottomed sterile 96-well microtitre plates. Plates were incubated for 24 hours at 30° C. without agitation, and absorbance at 570 nm was determined using a Spectrofluor microtitre plate reader (Tecan).

EDG1 = molecular target: T2, EDG1 (Homo sapiens, UniProt P21453); assay: Yeast reporter gene assay with unrelated receptor; type: cell-based
T2 construct: expressed in transfected cells; host or cells: Saccharomyces cerevisiae reporter strain (inferred from context)

[1] = tested on: control cells transformed with the vector p426GPD in combination with Gpa1/Gα13 and therefore lacking GPR55; assay: Yeast reporter gene assay in control cells transformed with vector p426GPD (lacking GPR55); type: cell-based, Saccharomyces cerevisiae; conditions: data not shown
Excerpt: A system of yeast strains MMY14-MMY24 has been described previously (Olesnicky et al, EMBO J. 18, 2756-2763, 1999, Brown et al, Yeast 16, 11-22, 2000). These strains contain a series of genetic modifications to enable coupling of heterologously expressed receptors to the expression of two reporter genes, via the endogenous yeast pheromone response signal transduction pathway. Importantly, the gene encoding the endogenous yeast pheromone receptor, STE2, has been deleted from these strains such that cells containing p426GPD-GPR55 will express GPR55 protein in place of Ste2 receptor protein. Furthermore, the gene encoding the G-protein α-subunit involved in the pheromone response, GPA1, has been deleted from these strains. To enable receptor coupling in strains MMY14-24, plasmid constructs encoding modified versions of GPA1 have been stably integrated into the yeast chromosome and are expressed in place of endogenous yeast GPA1. […]
In vivo assays of reporter gene induction were carried out by suspending yeast cells transformed as described above to a density of 0.02 OD600/ml in 200 μl SC-glucose (2%) medium lacking tryptophan, uracil and histidine. […] Plates were incubated for 24 hours at 30° C. without agitation, and absorbance at 570 nm was determined using a Spectrofluor microtitre plate reader (Tecan).

T1 sequence (Q9Y2T6 whole entry): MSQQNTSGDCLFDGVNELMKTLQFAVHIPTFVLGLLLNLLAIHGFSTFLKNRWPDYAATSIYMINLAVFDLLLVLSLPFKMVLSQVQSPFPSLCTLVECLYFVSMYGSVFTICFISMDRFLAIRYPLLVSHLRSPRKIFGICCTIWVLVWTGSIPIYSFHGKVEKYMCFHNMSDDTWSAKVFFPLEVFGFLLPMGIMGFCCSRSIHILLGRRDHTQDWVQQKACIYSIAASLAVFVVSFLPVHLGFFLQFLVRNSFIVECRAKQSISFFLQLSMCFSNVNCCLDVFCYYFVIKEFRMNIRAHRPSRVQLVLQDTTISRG
T2 sequence (P21453 whole entry): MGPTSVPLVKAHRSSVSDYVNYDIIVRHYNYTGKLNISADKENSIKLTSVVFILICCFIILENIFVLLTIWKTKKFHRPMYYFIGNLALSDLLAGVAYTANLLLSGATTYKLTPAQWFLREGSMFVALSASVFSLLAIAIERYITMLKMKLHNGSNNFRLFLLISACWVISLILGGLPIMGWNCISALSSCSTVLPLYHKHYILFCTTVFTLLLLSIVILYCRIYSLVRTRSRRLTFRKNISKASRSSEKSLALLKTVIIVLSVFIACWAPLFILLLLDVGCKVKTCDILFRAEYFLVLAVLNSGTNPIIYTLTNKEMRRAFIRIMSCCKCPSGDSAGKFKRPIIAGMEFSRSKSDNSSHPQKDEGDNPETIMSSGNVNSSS

Row | activity at GPR55 (Human GPR55; tested at GPR55 in yeast, data not shown) | Structure (SMILES) | agonism at GPR 55 (Human GPR55; GPR 55 expressed in yeast containing Gpa1/GαI3, Gαi2 and Gαi3 chimeras (FIG. 3 legend)) | GPR55 activity in strain expressing Gpa1/Gα12 (Human GPR55; Gpa1/Gα12) | GPR55 activity in strains expressing Gpa1/Gαi2 or Gpa1/Gαi3 (Human GPR55; Gpa1/Gαi2 or Gpa1/Gαi3 (FIG. 3)) | reporter gene activity (Human GPR55; yeast co-expressing p426GPD-GPR55 and Gpa1/Gα13, response dependent on concentration (FIG. 3)) | activation of GPR55 (Human GPR55; yeast reporter assay) | activation of unrelated receptors (EDG1) (EDG1) [fold over background] | increase in reporter gene activity in control cells [1]
1 | appeared active | Cc1c(C(=O)NN2CCOCC2)nn(-c2ccc(Cl)cc2Cl)c1-c1ccc(I)cc1 [AM281, 1-(2,4-dichlorophenyl)-5-(4-iodophenyl)-4-methyl-N-4-morpholinyl-1H-pyrazole-3-carboxamide] |  |  |  |  |  |  | 
2 |  | Cc1c(C(=O)NN2CCCCC2)nn(-c2ccc(Cl)cc2Cl)c1-c1ccc(I)cc1 [AM251, N-(piperidin-1-yl)-5-(4-iodophenyl)-1-(2,4-dichlorophenyl)-4-methyl-1H-pyrazole-3-carboxamide] | acts as an agonist | Activity has also been observed | weaker activities | significant increase | up to 60 fold over background | 1.3 | not observed

From patent publication US20030113814A1, “Identification of modulators of gpr55 activity” (priority 2002, published 2003)
